Results: paper PMC4448982, “LP-925219 maximizes urinary glucose excretion in mice by inhibiting both renal SGLT1 and SGLT2” (Pharmacology Research & Perspectives, 2015)

How the values were obtained:
human SGLT1 = target: T1, human SGLT1 (Homo sapiens, UniProt P13866); experiment: 14C-AMG uptake assay, HEK293 cells expressing human SGLT1; type: cell-based; set-up: expressed in transfected cells; conditions: mean ± SD
T1 sequence (P13866 1-664): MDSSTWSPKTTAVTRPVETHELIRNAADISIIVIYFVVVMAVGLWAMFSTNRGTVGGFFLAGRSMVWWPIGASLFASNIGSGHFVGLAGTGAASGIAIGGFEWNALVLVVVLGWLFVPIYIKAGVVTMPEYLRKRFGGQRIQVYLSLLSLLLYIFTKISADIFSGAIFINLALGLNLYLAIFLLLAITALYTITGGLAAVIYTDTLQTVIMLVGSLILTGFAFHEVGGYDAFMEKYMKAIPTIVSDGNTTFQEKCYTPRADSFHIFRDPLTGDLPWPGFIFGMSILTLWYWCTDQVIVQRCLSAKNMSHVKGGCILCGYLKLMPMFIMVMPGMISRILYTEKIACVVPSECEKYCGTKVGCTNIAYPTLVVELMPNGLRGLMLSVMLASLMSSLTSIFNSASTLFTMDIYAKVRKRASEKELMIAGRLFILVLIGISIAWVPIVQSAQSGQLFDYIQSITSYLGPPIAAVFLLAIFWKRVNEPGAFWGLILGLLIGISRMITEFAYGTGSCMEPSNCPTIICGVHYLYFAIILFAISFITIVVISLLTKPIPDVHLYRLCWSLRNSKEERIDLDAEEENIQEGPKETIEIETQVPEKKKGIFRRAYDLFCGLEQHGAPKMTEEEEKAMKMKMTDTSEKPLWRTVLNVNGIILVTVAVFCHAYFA
Description: Methods for generating cell lines expressing mouse, rat, and dog SGLT1 and SGLT2 are published (Powell et al. [2013b], [2014]). Full-length coding sequence of human SGLT1 (NP_000334) and human SGLT2 (NP_003032.1) with an HA-tag at the N-terminus were cloned into the mammalian expression vector pIRESpuro2 (Clontech, Mountain View, CA). HEK293 cells (ATCC, Manassas, VA) were transfected with the pIRESpuro2 vector containing human SGLT1 or SGLT2 and bulk stable cell lines were selected in the presence of 0.5 μg/mL of puromycin.
Cell lines expressing SGLT1 or SGLT2 were plated into poly-D-lysine-coated 384-well plates, and culture overnight in cell growth medium. Cells were washed, and then incubated in uptake buffer ([…], […] KCl, […] CaCl2, […] MgCl2, […] HEPES/Tris, 1 mg/mL of bovine serum albumin, pH7.4) containing [^14C]α-methylglucopyranoside (^14C-AMG), a nonmetabolizable glucose analog specific for sodium-dependent glucose transporters (Wright and Turk [2004]). The inhibition of SGLT1 or SGLT2 was determined by measuring SGLT1/2-mediated ^14C-AMG uptake in the presence of increasing compound concentrations of LP-925219. […] Standard sigmoidal dose–response model curves were fitted, and the IC50 value was computed as the LP-925219 concentration that inhibited the ^14C-AMG uptake by 50% between baseline and maximum uptake.

intestinal SGLT1 = target: T2, intestinal SGLT1 (Mus musculus, UniProt Q8C3K6); experiment: Glucose-containing meal challenge in C57 mice; type: in vivo
T2 construct: from tissue; host or cells: small intestine of living male C57BL/6-Tyrc-Brd mice
T2 sequence (Q8C3K6 1-665): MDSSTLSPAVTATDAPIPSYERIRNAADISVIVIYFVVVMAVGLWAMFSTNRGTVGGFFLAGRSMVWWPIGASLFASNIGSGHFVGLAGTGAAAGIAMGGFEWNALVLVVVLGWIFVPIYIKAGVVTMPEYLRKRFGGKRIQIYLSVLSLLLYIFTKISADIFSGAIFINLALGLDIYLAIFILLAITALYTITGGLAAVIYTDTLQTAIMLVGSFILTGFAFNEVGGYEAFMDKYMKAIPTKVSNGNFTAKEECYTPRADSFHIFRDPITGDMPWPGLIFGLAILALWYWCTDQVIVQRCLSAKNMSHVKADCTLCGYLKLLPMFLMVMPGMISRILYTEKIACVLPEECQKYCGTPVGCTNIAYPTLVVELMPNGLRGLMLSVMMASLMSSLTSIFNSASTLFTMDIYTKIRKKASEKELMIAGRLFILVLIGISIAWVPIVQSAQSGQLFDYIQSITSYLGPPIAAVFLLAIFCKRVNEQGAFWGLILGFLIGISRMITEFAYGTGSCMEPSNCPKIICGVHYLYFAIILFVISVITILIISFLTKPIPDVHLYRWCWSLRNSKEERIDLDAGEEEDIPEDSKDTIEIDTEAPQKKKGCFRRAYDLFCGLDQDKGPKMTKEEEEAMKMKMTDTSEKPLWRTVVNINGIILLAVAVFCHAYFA
Description: A meal consisting of low-fat diet (10% kcal as fat, D12450B; Research Diets, New Brunswick, NJ) supplemented with glucose was prepared by adding 50 g of low-fat diet powder and 9.4 g of glucose to water with a final volume of 94 mL. At 8:30 am, C57 mice in the fed state received either vehicle or 50 mg/kg LP-925219 by oral gavage; 30 min later, at Time = 0, each mouse received 25 mL/kg of the above meal (9.2 g/kg glucose, 2.5 g/kg protein, 0.6 g/kg fat) by oral gavage as described previously (Powell et al. [2013b]). Blood obtained from unanesthetized mice at 0, 10, and 30 min by tail nick, and at 60 min by retro-orbital bleed, was assayed for whole blood glucose using an Accu-Chek Aviva glucometer (Roche Diagnostics, Indianapolis, IN). The blood obtained at 60 min was also used to measure circulating levels of total GLP-1 (tGLP-1; Glucagon-Like Peptide-1 Total ELISA Kit, catalog #EZGLP1T-36K, EMD Millipore, Billerica, MA) as described previously (Powell et al. [2013b]). After their blood was drawn at 60 min, mice were anesthetized with isoflurane (TW Medical Veterinary Supply, Lago Vista, TX) and then euthanized by cervical dislocation. Cecal contents were then collected and analyzed for glucose and pH as described previously (Powell et al. [2013b]). Blood glucose time-course data were converted to area under the curve (AUC) values by trapezoidal summation using GraphPad Prism v4.03.
Mice received either vehicle or LP-925219 at a dose of 50 mg/kg (n = 5 for each group) by oral gavage; 30 min later the mice received, by oral gavage at Time 0, a glucose-containing meal challenge. (A) Blood glucose levels were measured at 0, 10, 30, and 60 min; for each mouse, blood glucose levels were used to calculate an AUC value for statistical analysis. At 60 min, blood was obtained for (B) tGLP-1 levels, and cecal contents were obtained and assayed for (C) cecal glucose and (D) cecal pH. LP-925219-treated value different from vehicle, *P < 0.05, **P < 0.01, ***P < 0.001. AUC, area under the curve.

[1] = 50 mg/kg oral gavage, 60 min after meal, vs vehicle

In the case of `COc1ccc(Cc2cc([C@@H]3O[C@H](SC)[C@@H](O)[C@H](O)[C@H]3O)ccc2Cl)cc1` [LP-925219], the IC50 (human SGLT1) is reported as 15.9 ± 4.2 nM, the “blood glucose AUC after meal challenge” value (intestinal SGLT1; 50 mg/kg oral gavage 30 min before meal, 0-60 min, vs vehicle, P < 0.05) is reported as “significant decrease” and the cecal glucose (intestinal SGLT1; [1]) is reported as “more glucose”. For the same compound, the “cecal pH” value (intestinal SGLT1; [1]) was “lower pH”, the “circulating total GLP-1” value (intestinal SGLT1; [1]) was “increased levels” and the diarrhea (intestinal SGLT1; 50 mg/kg oral gavage, short-term study) was “not observed”.
